Four compounds from patent US20230292776A1, “GAS PHASE TREATMENT OF PRODUCE” (priority 2022, published 2023) can be followed below.

Experiment [1] has as its system Colletotrichum gloeosporioides (Cg). As to the kind of experiment: Antifungal activity against Colletotrichum gloeosporioides (Cg) in wounded, infected avocados. The note with it: Example 9; avocados; vapor of 3 mL, 72 hour exposure. It is filed as in vivo. Here is the method:
Example 7. The antifungal activity of AITC and DADS vapor against Colletotrichum gloeosporioides (Cg) was tested in avocados. All test pieces were wounded by removing the stem and infected by dispensing 1000 Cg spores suspended in 10 μL of water into the wound. The test groups consisted of avocados that were: untreated and uninfected; untreated and infected; treated by dipping in a solution of 0.1 g/L of prochloraz; exposed to the vapor of 3 mL of AITC disposed in a Petri dish; and exposed to the vapor of 3 mL of DADS disposed in a Petri dish. FIG. 9 quantifies the infection results. AITC vapor reduced the incidence of Cg mold by 97% compared to the untreated test group and 70% compared to the prochloraz treated test group. DADS vapor reduced the incidence of Cg mold by 60% compared to the untreated test group.
Example 8. The antifungal activity of a range of DADS vapor exposure times was tested against Cg in avocados. All test pieces were wounded by removing the stem and infected by dispensing 1000 Cg spores suspended in 10 μL of water into the wound. The test groups consisted of avocados that were: infected and untreated; and exposed to the vapor of 3 mL of DADS in a Petri dish for 24 hours, 48 hours, and 72 hours. FIG. 10 quantifies the infection results. Test group exposed to DADS vapor at all exposure times reduced the incidence of Cg mold compared to the untreated test group. A 24 hour DADS exposure reduced the incidence of Cg mold by 8%. A 48 hour DADS exposure reduced the incidence of Cg mold by 25%. A 72 hour DADS exposure reduced the incidence of Cg mold by 57%.
(§1) Example 9. The antifungal activity of a range of AITC and carvacrol vapor exposure times was tested against Cg in avocados. To measure the effect of the various treatments on ripening, durometer shore was taken after 7 days of incubation at ambient temperature and high humidity. All samples were wounded by removing the stem and infected by dispensing 1000 Cg spores suspended in 10 μL of water in the wound. The test groups consisted of avocados that were: infected and left untreated on the benchtop; infected and left untreated under a fume hood; exposed to the vapor of 3 mL of AITC in a Petri dish for 24 hours, 48 hours, and 72 hours; and exposed to the vapor of 3 mL of carvacrol in a Petri dish for 72 hours. FIG. 11 quantifies the infection results. […] All exposure times to AITC vapor reduced the incidence of Cg mold compared to the untreated samples. A 24 hour AITC exposure reduced the incidence of Cg mold by 90%. A 48 hour AITC exposure reduced the incidence of Cg mold by 97%. A 72 hour AITC exposure reduced the incidence of Cg mold by 83%.
(§2) Example 10. The antifungal activity of a range of AITC vapor exposure times were tested against Cg in avocados. To measure the effect of the various treatments on ripening, durometer shore was taken after 6 days of incubation at ambient temperature and high humidity. All samples were wounded by removing the stem and infected by dispensing 1000 Cg spores suspended in 10 μL of water in each wound. The test groups consisted of avocados that were: infected and left untreated on the benchtop; infected and left untreated in a fume hood; exposed to the vapor of 3 mL of AITC in a Petri dish for 24 hours, 48 hours, and 72 hours. FIG. 13 quantifies the infection results. […] All exposure times to AITC vapor reduced the incidence of Cg mold compared to the untreated samples.
Example 21. The antifungal activity of avocados exposed to AITC vapor and prochloraz was tested against Cg in avocados. To measure the effect of the various treatments on ripening, durometer shore was taken after 5 days of incubation at ambient temperature (about 20° C. to about 25° C.) and high humidity (about 88% relative humidity to about 93% relative humidity). All samples were wounded by removing the stem and infected by dispensing 1000 Cg spores suspended in 10 μL of water in the wound. […]

The test system of experiment [2] is Penicillium digitatum (Pd). As to the kind of experiment: Antifungal activity of vapor against Penicillium digitatum (Pd) in wounded, infected mandarins. Particulars: after 6 days. In kind it is in vivo.
The next experiment concerns avocados. As to the kind of experiment: Durometer shore (firmness, ripening) of treated avocados. It is filed as in vivo, avocado. The note with it: Example 21; Cg-infected avocados; AITC 125 μL 30 minutes; prochloraz 0.1 g/L dip; after 5 days. As for the experimental part: as §1, §2
Example 21. The antifungal activity of avocados exposed to AITC vapor and prochloraz was tested against Cg in avocados. To measure the effect of the various treatments on ripening, durometer shore was taken after 5 days of incubation at ambient temperature (about 20° C. to about 25° C.) and high humidity (about 88% relative humidity to about 93% relative humidity). All samples were wounded by removing the stem and infected by dispensing 1000 Cg spores suspended in 10 μL of water in the wound. Exposure to vapor was done by placing the avocados in an airtight container, dispensing AITC onto Whatman filter paper discs, suspending the discs in front of a battery-powered fan, closing the container and incubating the avocados for 30 minutes. After vapor exposure, the avocados were left at ambient temperature, high humidity, and assessed for Cg mold on day 5. Treatment groups consisted of avocados that were: exposed for 30 minutes to the vapor of 125 μL of AITC disposed on a filter paper disc; dipped in a solution of 0.1 g/L of prochloraz and placed to dry on a rack in front of a fan for 30 min; infected and left untreated; and uninfected and untreated. […] To prepare the 0.1 g/L of prochloraz, 10 mg of prochloraz was mixed with 10 mL of ethanol and 90 mL of water. […] A 24 hour AITC exposure reduced the incidence of Cg mold by 90%. […] The mean shore value for the untreated avocados was 28.8 (standard deviation (SD)=10.8). The mean shore value for the infected avocados was 47.3 (SD=11.8). The mean shore value of the positive control, prochloraz treated avocados was 44.3 (SD=14.7). The mean shore value of the AITC treated avocados was 61.1 (SD=10.5).
Durometer Shore Measurement: A Fruit Hardness Tester— HPE III Fff w/Sphere Ø 5.0 mm Test Anvil is used for the measurements. The Operating Procedure is as follows: • 1) At room temperature and 1 atm pressure, switch on the measuring device and press the hull or sleeve against the specimen so that the contact surface of the pressure plate rests on the fruit. […]

On to `Cc1ccc(C(C)C)cc1O` [carvacrol], for which, in experiment [1], the “reduction of the incidence of Cg mold” value was “did not reduce the incidence of Cg mold”.
As for `C=CCOC(Cn1ccnc1)c1ccc(Cl)cc1Cl` (stereo not shown) [imazalil, reference compound], in experiment [2] (Example 6, treated with 1 g/L, fruit of poor quality with latent infection), the infected mandarins was 83.3%.
Regarding `CCCN(CCOc1c(Cl)cc(Cl)cc1Cl)C(=O)n1ccnc1` [prochloraz, reference compound], the mean shore value in the experiment on avocados is listed as 44.3 (SD=14.7).
As to `C=CCc1ccc(O)c(OC)c1` [eugenol], in experiment [2] (Example 19, mandarins, 62.5 μL AITC and/or 125 μL of all other compounds, 30 minutes), the “performance against Pd versus the untreated samples” value is listed as “performed better than the untreated samples”.
